Results from article PMC11142920, “De novo-designed transmembrane proteins bind and regulate a cytokine receptor” (Nature Chemical Biology, 2024).
Each block holds one molecule with its values, some of them ahead of it.

Tests used:
mEpoR−GFP1-10 = assay: Split GFP complementation with mEpoR−GFP1-10; assay type: cell-based, mouse; settings: flow cytometry, BaF3 cells
ErbB2−GFP1-10 = assay: Split GFP complementation with ErbB2−GFP1-10; assay type: cell-based; settings: flow cytometry, BaF3 (tTa) cells, 1 pM doxycycline
mEpoR = assay: EPO-induced proliferation (growth inhibition) of BaF3/mEpoR cells expressing TM proteins; assay type: cell-based, mouse; settings: 0.06 U ml^−1 EPO, IL-3-free, 6-8 days; versus empty vector
Description: Mouse IL-3-dependent BaF3 and derivative cells were maintained in RPMI-10 medium: RPMI-1640 supplemented with 10% heat-inactivated FBS, 5% WEHI-3B cell-conditioned medium (as the source of IL-3), 4 mM L-glutamine, 0.06 mM β-mercaptoethanol and 1⨯ P-S. BaF3 cells expressing mEpoR, hEpoR and all EpoR mutants and chimeras were generated by infecting BaF3 cells with pMSCV-neo vector containing the desired HA-tagged EpoR gene. BaF3 cells (5 ⨯ 10^5) were washed with PBS and then resuspended in 500 μl of RPMI-10 medium with 4 μg ml^−1 polybrene. […]
For proliferation assays, 2 ⨯ 10^5 BaF3 and derivative cells expressing the appropriate genes were washed in PBS three times to remove IL-3. […] Viable cells were counted 6−8 days after IL-3 removal. […] The statistical significance of differences between control and experimental samples was evaluated by either one-tailed or two-tailed Student’s t-tests with unequal variance, performed using the T.TEST function in Microsoft Excel (2013).
For proliferation assays, BaF3/mEpoR/tTA cells expressing CHAMP proteins were first cultured in 10 ml of RPMI-10/IL-3 medium in the absence of Dox or supplemented with 100 or 200 pg ml^−1 Dox for 48 h. Then, 2 ⨯ 10^5 BaF3 cells were washed in PBS, resuspended in IL-3-free medium supplemented with the same concentration of Dox and 0.06 U ml^−1 human EPO, and counted as described above.

[1] = target: mEpoR-TM2 (isotope-labeled mEpoR TM domain fragment) (mouse); assay: SDS-PAGE; mEpoR TM peptide on SDS-PAGE, non-covalent monomer and dimer bands
[2] = target: GFP11−CHAMP-1 (Flag tag, GFP11, GGG linker, CHAMP-1); assay: split reporter (BiFC, NanoBiT); split GFP complementation in BaF3 cells co-expressing a GFP1-10 fusion and a GFP11 fusion; mean fluorescence intensity by flow cytometry
mEpoR TM domain = settings: parallel self-interaction; ref [25]–[28]; cited from earlier work
Text: EpoR is a prototypical cytokine receptor whose TM domain contributes to both receptor homodimerization[25]–[27] and conformational coupling upon ligand binding[28],[29], activating the Janus kinase (JAK)−signal transducer and activator of transcription (STAT) pathway. […] In model membranes, designed TM peptides hosting SXXLXXX sequence repeats spontaneously homodimerize, strongly favoring parallel TM helix geometry like that of ...

Molecule: MDHLGASLWPQVGSLCLLLAGAAWERVQLAHHFSEPEITLIIFGVMAGVIGTILLISYGIRRLIGGSGGGGSGGRDHMVLHEYVNAAGIT [glycophorin A, GlycophorinA TM domain construct fused at its c-terminus to GFP11]
fluorescence in mEpoR−GFP1-10 expressing cells (in words) (mEpoR−GFP1-10): fluorescence was not increased

Molecule: MDHLGASLWPQVGSLCLLLAGAAWPVTFIIATVVGVLLFLILVVVVGILGGSGGGGSGGRDHMVLHEYVNAAGIT [ErbB2 TM domain fusion, ErbB2 TM domain construct fused to GFP11 at its c-terminus]
fluorescence in mEpoR−GFP1-10 expressing cells (in words) (mEpoR−GFP1-10): fluorescence was not increased | complementation of ErbB2−GFP1-10 (ErbB2−GFP1-10): could complement ErbB2−GFP1-10

Molecule: MRLPGAMPALALKGELLLLSLLLLLEPQISQGLVVTPKVVVISAILALVVLTIISLIILIMLWQKKPRYEIRWKVIESVSCPAPRAEAEDSFL [PDGFβR, unrelated platelet-derived growth factor β receptor TM domain protein construct]
inhibition of EPO-induced proliferation (in words) (mEpoR): did not show inhibited proliferation

stoichiometry N [1]: 2
Molecule: mEpoR-TM2 (isotope-labeled mEpoR TM domain fragment) (peptide)

Molecule: MDHLGASLWPQVGSLCLLLAGAAWAPPLDPLILTLSLILVLISLLLTVLALLSHRRALKQKIWPGIPSPESEGPYSNPYENSLIPAAEPLPPSYVACS [mEpoR TM domain mimic protein, type I mEpoR TM domain mimic protein expressed in BaF3 cells]
inhibition of EPO-induced proliferation (in words) (mEpoR): did not show inhibited proliferation

fold MFI over cells expressing mEpoR−GFP1-10 alone or the CHAMP-1 fusion alone [2]: > 4 fold
B1: mEpoR−GFP1-10 fusion protein (domain or fragment)
chain: APSPSLPDPKFESKAALLASRGSEELLCFTQRLEDLVCFWEEAASSGMDFNYSFSYQLEGESRKSCSLHQAPTVRGSVRFWCSLPTADTSSFVPLELQVTEASGSPRYHRIIHINEVVLLDAPAGLLARRAEEGSHVVLRWLPPPGAPMTTHIRYEVDVSAGNRAGGTQRVEVLEGRTECVLSNLRGGTRYTFAVRARMAEPSFSGFWSAWSEPASLLTASDLDPLILTLSLI

B2: mEpoR: mouse erythropoietin receptor (target); TM domain (protein)
chain: APSPSLPDPKFESKAALLASRGSEELLCFTQRLEDLVCFWEEAASSGMDFNYSFSYQLEGESRKSCSLHQAPTVRGSVRFWCSLPTADTSSFVPLELQVTEASGSPRYHRIIHINEVVLLDAPAGLLARRAEEGSHVVLRWLPPPGAPMTTHIRYEVDVSAGNRAGGTQRVEVLEGRTECVLSNLRGGTRYTFAVRARMAEPSFSGFWSAWSEPASLLTASDLDPLILTLSLILVLISLLLTVLALLSHRRTLQQKIWPGIPSPESEFEGLFTTHKGNFQLWLLQRDGCLWWSPGSSFPEDPPAHLEVLSEPRWAVTQAGDPGADDEGPLLEPVGSEHAQDTYLVLDKWLLPRTPCSENLSGPGGSVDPVTMDEASETSSCPSDLASKPRPEGTSPSSFEYTILDPSSQLLCPRALPPELPPTPPHLKYLYLVVSDSGISTDYSSGGSQGVHGDSSDGPYSHPYENSLVPDSEPLHPGYVACS
modifications: left off: HA, end not stated, kept
notes: mouse erythropoietin receptor (target); TM domain
homodimerization of mEpoR TM domains (mEpoR TM domain): only weakly homodimerize
